Source: US9504675B2, “Alpha-ketoheterocycles and methods of making and using” (The Scripps Research Institute, priority 2011, dated 2016)
pKi: −log10 of the molar value. “Also recorded” adds a separate entry of the source.

Key:
[1] = system: catalepsy, hypothermia, hypomotility (THC-like effects); test: Cannabimimetic side effects after oral administration; type: in vivo; conditions: oral administration 50 mg/kg
[2] = molecular target: T1, recombinant rat FAAH (rFAAH) (Rattus norvegicus, UniProt P97612); test: Enzyme assay: inhibition of purified recombinant rat FAAH, 14C-oleamide hydrolysis, Ki by Dixon plot; type: biochemical
T1 construct: The truncated rat FAAH (rFAAH) was expressed in E. coli and purified; made in house; host or cells: Escherichia coli
T1 sequence (P97612 30-579 limits assumed): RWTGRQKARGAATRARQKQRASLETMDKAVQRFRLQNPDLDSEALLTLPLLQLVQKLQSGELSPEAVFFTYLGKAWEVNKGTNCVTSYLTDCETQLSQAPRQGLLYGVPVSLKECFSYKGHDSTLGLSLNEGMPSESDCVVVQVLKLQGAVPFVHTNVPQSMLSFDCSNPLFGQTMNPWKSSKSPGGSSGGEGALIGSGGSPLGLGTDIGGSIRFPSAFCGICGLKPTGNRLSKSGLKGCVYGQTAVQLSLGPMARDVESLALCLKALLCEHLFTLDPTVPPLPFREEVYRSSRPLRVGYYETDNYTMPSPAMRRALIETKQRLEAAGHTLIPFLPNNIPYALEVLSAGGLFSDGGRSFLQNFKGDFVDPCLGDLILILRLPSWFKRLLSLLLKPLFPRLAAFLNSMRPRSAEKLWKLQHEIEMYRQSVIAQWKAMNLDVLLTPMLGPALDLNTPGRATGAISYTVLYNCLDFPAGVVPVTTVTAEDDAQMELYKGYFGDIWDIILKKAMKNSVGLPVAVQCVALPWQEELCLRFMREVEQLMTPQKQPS
Procedure, shortened: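 Hydrolysis of 14C-oleamide at 20-23° C by purified truncated rat FAAH expressed in E. coli or by lysate of COS-7 cells transfected with full-length human FAAH, in 125 mM Tris/1 mM EDTA/0.2% glycerol/0.02% Triton X-100/0.4 mM Hepes, pH 9.0. Reaction stopped in 0.1 N HCl at three time points; substrate and product separated by TLC; Ki from Dixon plot.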

[3] = system: mice with CCI neuropathic pain; test: Chronic constriction injury (CCI) of the sciatic nerve: mechanical (von Frey) and cold (acetone) allodynia; type: in vivo, mouse (C57BL/6); conditions: 50 mg/kg p.o.
Experimental: Surgery was performed as follows. Briefly, the right hind leg of male C57BL/6 mice was shaved and swabbed with betadine solution and ethanol. Posterior to the femur, an incision was made and the sciatic nerve was visualized and isolated, following muscle separation. The nerve was ligated twice with 5-0 (1.0 metric) black silk braided suture (Surgical Specialties Corporation, Reading, Pa.). The surrounding muscle and skin were then sutured with 6-0 nylon. Mice were recovered in a heated cage and observed for approximately 2 h before being returned to the vivarium.
Allodynia was initially tested 10 days after surgery. Male C57BL/6 mice were habituated to the test apparatus for 2 h on the 2 days prior to testing. On the test day, the mice were brought into the test room, weighed, and allowed to acclimate for at least 1 h before the start of the experiment. […] Mechanical (von Frey) and cold (acetone-induced) allodynia were tested at 1, 3, 6, and 9 h post drug administration. Testing was carried out by a separate observer who was blinded to treatment conditions. Mechanical allodynia was assessed with von Frey filaments (North Coast Medical, Morgan Hill, Calif.), using the “up-down” method. Each hind paw was stimulated 5 times per filament (0.16-6.0 g), starting with the 0.6 g filament and increasing weight. Paw clutching or lifting, in response to three or more stimulations, was coded as a positive response. Once a positive response was detected, sequentially lighter-weight filaments were used to assess paw withdrawal threshold. Approximately 30 min after completing the von Frey test, cold allodynia was tested by propelling 10 μL of acetone (Fisher Bioscience) via air burst, from a 200 μL pipette (Rainin Instruments, Oakland, Calif.) onto the plantar surface of each hind paw. Total time lifting or clutching each paw was recorded, with a maximum time of 20 s.
Data Analyses: Behavioral data were analyzed using a two-way mixed factorial analysis of variance (ANOVA) for each paw, with drug treatment as the between subjects measure, and time as the within subjects measure. Follow-up comparisons were made using the Bonferroni test. All animals were included in the analyses. Differences between groups were considered statistically significant at p<0.05.

human FAAH (hFAAH) = molecular target: T2, human FAAH (hFAAH) (Homo sapiens, UniProt O00519); test: Enzyme assay: inhibition of human FAAH (lysate of hFAAH-transfected COS-7 cells), 14C-oleamide hydrolysis; type: biochemical
T2 construct: The full-length human FAAH (hFAAH) was expressed in COS-7 cells; expressed in transfected cells; host or cells: COS-7 (transiently transfected with human FAAH cDNA)
T2 sequence (O00519 1-579): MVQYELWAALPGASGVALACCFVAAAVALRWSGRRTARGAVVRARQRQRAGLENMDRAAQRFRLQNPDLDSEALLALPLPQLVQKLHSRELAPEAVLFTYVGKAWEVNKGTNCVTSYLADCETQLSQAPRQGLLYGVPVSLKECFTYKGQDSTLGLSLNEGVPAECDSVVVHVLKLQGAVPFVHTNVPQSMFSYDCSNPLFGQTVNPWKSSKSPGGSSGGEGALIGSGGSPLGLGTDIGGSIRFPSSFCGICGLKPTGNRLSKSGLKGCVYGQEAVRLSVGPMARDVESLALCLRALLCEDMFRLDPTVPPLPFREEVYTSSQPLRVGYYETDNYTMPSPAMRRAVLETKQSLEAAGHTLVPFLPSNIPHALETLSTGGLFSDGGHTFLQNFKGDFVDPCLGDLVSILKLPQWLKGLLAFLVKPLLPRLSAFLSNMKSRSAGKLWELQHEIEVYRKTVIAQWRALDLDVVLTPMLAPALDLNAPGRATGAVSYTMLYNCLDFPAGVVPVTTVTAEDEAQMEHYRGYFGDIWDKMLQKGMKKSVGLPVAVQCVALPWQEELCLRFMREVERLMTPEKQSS
Experimental: Enzyme assays were performed at 20-23° C. with purified recombinant rat FAAH expressed in Escherichia coli or with solubilized COS-7 membrane extracts from cells transiently transfected with human FAAH cDNA (where specifically indicated) in a buffer of 125 mM Tris/1 mM EDTA/0.2% glycerol/0.02% Triton X-100/0.4 mM Hepes, pH 9.0.
^14C-labeled oleamide was prepared from ^14C-labeled oleic acid. The truncated rat FAAH (rFAAH) was expressed in E. coli and purified. The purified recombinant rFAAH was used in the inhibition assays unless otherwise indicated. The full-length human FAAH (hFAAH) was expressed in COS-7 cells as described, and the lysate of hFAAH-transfected COS-7 cells was used in the inhibition assays where explicitly indicated.
The inhibition assays were performed as follows. […] The enzyme reaction was terminated by transferring 20 μL of the reaction mixture to 500 μL of 0.1 N HCl at three different time points. The ^14C-labeled oleamide (substrate) and oleic acid (product) were extracted with EtOAc and analyzed by TLC as detailed. The Ki of the inhibitor was calculated using a Dixon plot as described (standard deviations are provided in the Supporting Information tables).

[4] = system: endogenous levels of FAAH substrates AEA, PEA, OEA and of 2-AG, AA; test: In vivo pharmacodynamic studies: brain and liver lipid levels after inhibitor treatment (LC-MS); design: species or system mouse (C57BL/6J)
Experimental: This includes monitoring the effects of the inhibitors on the endogenous levels of the FAAH substrates anandamide (AEA, N-arachidonoyl ethanolamine), N-oleoyl ethanolamine (OEA), and N-palmitoyl ethanolamine (PEA), as well as the key lipids 2-arachidonoylglycerol (2-AG) and arachidonic acid (AA) that are not endogenous substrates for FAAH.
Inhibitors were prepared as a saline-emulphor emulsion for intraperitoneal (i.p.) administration by vortexing, sonicating, and gently heating neat compound directly into an 18:1:1 v/v/v solution of saline:ethanol:emulphor, or as a homogeneous PEG solution for oral administration (p.o.) by vortexing, sonicating, and gently heating neat compound directly into PEG300 (Fluka). Male C57BL/6J mice (<6 months old, 20-28 g) were administered inhibitors in saline-emulphor emulsion or an 18:1:1 v/v/v saline:emulphor:ethanol vehicle i.p. at a volume of 10 μL/g weight, or alternatively inhibitors in PEG300 or a PEG300 vehicle p.o. at a volume of 4 μL/g weight. After the indicated amount of time, mice were anesthetized with isofluorane and killed by decapitation. Total brains (˜400 mg) and a portion of the liver (˜100 mg) were removed and flash frozen in liquid N2.
Tissue was weighed and subsequently Dounce homogenized in 2:1:1 v/v/v CHCl3:MeOH:Tris pH 8.0 (8 mL) containing standards for lipids (50 pmol d4-PEA, 2 pmol d4-AEA, 0.5 nmol ds-2-AG, and 10 nmol pentadecanoic acid). The mixture was vortexed and then centrifuged (1,400×g, 10 min). The organic layer was removed, dried under a stream of N2, resolubilized in 2:1 v/v CHCl3:MeOH (120 μL), and 10 μL of this resolubilized lipid was injected onto an Agilent G6410B QQQ instrument. […] Mobile phase A was composed of a 95:5 v/v H2O:MeOH, and mobile phase B was composed of a 65:35:5 v/v/v i-PrOH:MeOH:H2O. 0.1% Formic acid or 0.1% ammonium hydroxide was included to assist in ion formation in positive and negative ionization mode, respectively. The flow rate for each run started at 0.1 mL/min with 0% B. At 5 min, the solvent was immediately changed to 60% B with a flow rate of 0.4 mL/min and increased linearly to 100% B over 10 min. […] MS analysis was performed with an electrospray ionization (ESI) source. […] For negative polarity, the analysis was performed in MS2 scan mode from 100-1000 m/z. The capillary was set to 4 kV, the fragmentor was set to 100 V, and the delta EMV was set to 0. Lipids were quantified by measuring the area under the peak in comparison to the standards.

[5] = 50 mg/kg p.o., time course up to 9 h
[6] = Table 6, 30 mg/kg i.p., 1 h, single mouse
[7] = Table 7, i.p. (30 mg/kg), 3 mice per group
[8] = Table 7, oral (50 mg/kg), 3 mice per group

O=C(c1ncc(-c2ccccn2)o1)C1CCc2cc(Oc3ccccc3)ccc2C1 (centres unmarked) [Compound 12, (6-Phenoxy-1,2,3,4-tetrahydronaphthalen-2-yl)(5-(pyridin-2-yl)oxazol-2-yl)methanone]
cannabimimetic side effects [1]: did not produce catalepsy, hypothermia, or hypomotility
mode of inhibition (Lineweaver-Burk analysis) [2]: reversible, competitive inhibitor; also recorded: competitive, reversible inhibition
pKi ([2]; Ki, rFAAH, Table 5, active (S)-enantiomers): 8.36
duration of effect on cold allodynia [3]: > 9 h
duration of effect on mechanical allodynia [3]: > 6 h
mechanical or cold allodynia in control (contralateral) paws [3]: no effect
duration of attenuation of neuropathic pain ([3]; FIG. 9 legend): up to 9 hours
pKi (human FAAH (hFAAH); Table 5, active (S)-enantiomers): 8.24
reduction in activity against the human enzyme versus rat FAAH (human FAAH (hFAAH); hFAAH vs rFAAH, active (S)-enantiomers): no significant distinction
duration of elevation of brain N-acylethanolamines (AEA, PEA, OEA) [4, 5]: maintained over the 9 h time course
time of peak brain levels of anandamide [4, 5]: 1.5 to 3 h
Brain 2-AG [4, 6]: 13 pmol/g
Brain AA [4, 6]: 170 pmol/g
Brain AEA [4, 6]: 42 pmol/g
Brain PEA [4, 6]: 785 pmol/g
Liver 2-AG [4, 6]: 0.25 pmol/g
Liver AEA [4, 6]: 12 pmol/g
Liver PEA [4, 6]: 472 pmol/g
Brain 2-AG [4, 7]: 7.0 pmol/g
Brain AEA [4, 7]: 28.6 pmol/g
Brain PEA [4, 7]: 599 pmol/g
Brain 2-AG [4, 8]: 11.5 pmol/g
Brain AEA [4, 8]: 43.2 pmol/g
Brain PEA [4, 8]: 772 pmol/g
increases in brain levels of N-palmitoyl ethanolamine and N-oleoyl ethanolamine ([4]; p.o. 10, 25 and 50 mg/kg, 1 h): 5.5-7.8 fold
increase in brain levels of anandamide ([4]; p.o. 25-50 mg/kg, 1 h): 12-13 fold
